Consider three compounds from patent US20120282237A1, “USE OF PROTEIN ARGININE METHYLTRANSFERASES IN REGULATING HEMATOPOIETIC DIFFERENTIATION” (priority 2011, published 2012).

In assay [1] the test system is human CD34+ hematopoietic cells. In words: TPO-induced megakaryocyte differentiation of CD34+ cells, CD41 expression by flow cytometry. Type of assay: cell-based. Particulars: TPO alone (100 ng/ml), day 15. How it is done:
To analyze the megakaryocyte surface marker CD41, cells were first incubated in 2% bovine serum albumin for 30 min and then with fluorescein isothiocyanate (FITC)-conjugated anti-Plt-1 (CD41) antibodies (1:80, Beckman Coulter) in 1% bovine serum albumin for 30 min; cells were then analyzed by flow cytometry.
To investigate the effect of PRMT1 in more physiologically relevant conditions, TAT-HA-PRMT1 was introduced into human CD34^+ hematopoietic cells. CD34^+ cells were derived from human umbilical cord blood with consent from the mother and were collected and processed according to governmental regulations (“Guidelines for Collection and Use of Human Specimens for Research.” Department of Health, Taiwan). Isolation and expansion of CD34^+ cells were performed as described previously (Yao, et al., Stem Cells Dev. 2006, 15, 70-78).
Briefly, the CD34^+ cells were purified with CD34 microbeads by a Miltenyi VarioMACS device (Miltenyi Biotec) and cultivated in serum-free Iscove's modified Dulbecco's medium (IMDM) (HyClone) supplemented with serum substitutes (1.5 g/liter bovine serum albumin, 4.4 μg/ml insulin, 60 μg/ml transferrin, and 25.9 μM 2-mercaptoethanol) and a cytokine mixture (8.5 ng/ml TPO, 4.1 ng/ml interleukin-3, 15 ng/ml stem cell factor, 6.7 ng/ml flk2/flt3 ligand, 0.8 ng/ml interleukin-6, 3.2 ng/ml granulocyte colony-stimulating factor, and 1.3 ng/ml granulocyte-macrophage colony-stimulating factor) for 6 to 7 days. To induce megakaryocyte differentiation, the expanded CD34^+ cells were cultivated (5×10^4cells/ml) in media described above without cytokine mixture for 6 h. TPO (100 ng/ml) was added to induce differentiation. Expression of CD41 was analyzed by flow cytometry 15 days after TPO stimulation.
Recombinant TAT-fused HA-PRMT1 and HA-GFP (as a control) proteins were expressed in Escherichia coli and purified using Ni^+-nitrilotriacetic acid-agarose (Qiagen). Endotoxins were removed using Detoxi-Gel™ endotoxin removing gel (Pierce) according to the manufacturer's instructions. For differentiation study, recombinant TAT-fused proteins were added to CD34^+ cells 6 h before TPO stimulation and again at the time of TPO addition.
Both the recombinant TAT-conjugated HA-PRMT1 protein and the HA-GFP control protein were detected in cells by Western blot analysis (FIG. 6A). Erk was used as a loading control. Thrombopoietin (TPO) induces CD34^+ hematopoietic cells to undergo differentiation towards the megakaryocyte lineage as detected by the expression of the specific surface marker CD41. TPO-induced CD41 expression ranged from 45% to 76% in four different donors at day 15 after TPO treatment (Table 1).

The subject of assay [2] is K562 cells. Kind of assay: PMA-induced megakaryocyte differentiation of K562 cells (modified Wright-Giemsa staining, adherent cells). The conditions noted are these: PMA 40 nM. Type of assay: cell-based, human. How it is done: For megakaryocyte differentiation, K562 cells were treated with 40 nM of PMA, (Sigma-Aldrich). Adherent cells with pseudopodia were examined by phase contrast light microscopy. For quantification, cells in suspension or loosely attached were first removed from the culture dish carefully, and adherent cells were then removed by trypsinization, collected, and counted. Cytological changes, including a multilobed nucleus and vacuolated cytoplasm, were examined by modified Wright-Giemsa staining. Three to four hundred cells were examined in each assay.
Megakaryopoiesis can be characterized by cytological changes and expression of lineage-specific markers such as CD41. […] In addition, we observed an increased number of adherent cells, about 30% at 96 hour (FIG. 2B, E3-6).

Assay [3] concerns K562 cells. In words: Ara-C-induced erythroid differentiation of K562 cells, benzidine staining. Type of assay: cell-based, human. The procedure:
Various K562 cell clones were treated with Ara-C (A, 1 μM) and sodium butyrate (B, 2 mM) for 96 hr, and measured by qualifying hemoglobin-positive cells with benzidine stain. […] All experiments were performed at least three times and data are presented as means±S.E.; *** p<0.005 as compared with K562 parental cells.
The methyltransferase inhibitor, adenosine dialdehyde (AdOx), was added 8 hours before Ara-C treatment. Inhibition of methylation suppressed Ara-C-induced erythroid differentiation (A). The enzymatically impaired mutant PRMT1G80R, when transiently expressed in K562 cells (B), lost the effect on both megakaryocyte (C) and erythroid (D) differentiations. […] All experiments were performed at least three times and data are presented as means±S.E.; *** p<0.005 as compared with K562 parental cells.
In order to test whether activity of PRMT1 participates in regulation of differentiation, adenosine dialdehyde (AdOx), an inhibitor of S-adenosylhomocysteine hydrolase, which indirectly suppresses methylation due to accumulation of products, was used to treat K562 cells. […] A single amino acid mutation (G80R) in the conserved SAM binding domain of PRMT1 with impaired methyltransferase activity (Kwak et al., Mol. Cell 2003, 11, 1055-1066), HA-PRMT1G80R, was transiently expressed in K562 cells (FIG. 5B).

Consider “TPO: Thrombopoietin, inducer of megakaryocyte differentiation of CD34+ cells (100 ng/ml)”, for which the CD41 expression in assay [1] (donor 1) came out at 62.3%; in assay [1] (donor 2), 44.7%; in assay [1] (donor 3) it was 68.2%; in assay [1] (donor 4), 75.7%.

`CCCCCCCCCCCCCC(=O)O[C@@H]1[C@@H](C)[C@@]2(O)[C@@H](C=C(CO)C[C@]3(O)C(=O)C(C)=C[C@@H]23)[C@@H]2C(C)(C)[C@]12OC(C)=O` [PMA, Phobol 12-myristate 13-acetate]: the “cells with characteristics of megakaryocytes” value in the assay with K562 cells [2] (E3-6 and parental K562 cells, 96 hours) is “About 50%”. Besides, the adherent cells entry with K562 cells [2] (E3-6 cells, 96 hour) is listed as “about 30%”.

As to `Nc1ncnc2c1ncn2C(C=O)OC(C=O)CO` (centres unmarked) [AdOx, adenosine dialdehyde], in the assay with K562 cells [3] (AdOx added 8 hours before Ara-C treatment), the Ara-C-induced erythrocytic differentiation entry is “dramatically suppressed”. In addition, in the assay with K562 cells [3] (AdOx alone, no Ara-C), the erythrocytic differentiation entry is “did not influence differentiation”.
